These results are taken from patent publication US20240335470A1, “CAR T CELLS FOR TREATING CD19+, CD20+ OR CD22+ TUMORS OR B-CELL DERIVED AUTO-IMMUNE DISEASES” (OSPEDALE PEDIATRICO BAMBINO GESU', priority 2020, published 2024).

For test [1], the system named is iC9.CAR.CD19LH-DAUDI cells. Description: NSG xenograft, iC9.CAR.CD19LH-DAUDI, iC9 activation by AP1903. The test is classed as in vivo, NSG mice. How it is done:
Schematic representation of the experimental design, with iC9.CAR.CD19LH positive FF-Luciferase positive DAUDI cells infused at day-3. At Day 0, mice were evaluated for leukemia engraftment and treated with 100 μg/mouse of AP1903 from day 0 to day 28. (B) Bioluminescence images of each control untreated mouse and each AP1903 treated mouse. Mice were monitored for more than 30 days after AP1903 withdrawal (C) Bioluminescence values over time for each treated mouse in the two cohorts, un-treated (black lines) or AP1903 treated (dotted line) mice. (D) Kaplan-Meier survival curve analysis of leukaemia-bearing mice untreated (black line) or AP1903 treated (blue line). ****p-value=<0.00001. The only mouse (#20) showing a persisting positive signal at IVIS analysis after AP1903 administration was sacrificed at day 35 together with a negative control (#11) and a positive control (mouse not exposed to AP1903 administration, #6), to characterize the leukemia cells.
(§1) To induce the in vitro activation of iC9, cells were treated once with 20 nM of AP1903 (Medchemexpress, Cat. HY-16046). The percentage of CAR+ cells after the AP1903 treatment was evaluated by FACS at the indicated time points. […] Control cohort was infused with sterile PBS as vehicle solution. Tumor was monitored by weekly IVIS imaging analysis.

A further test deals with iC9-T cells. As to conditions: patients with GVHD after haploidentical iC9-T cells infusion; cited from earlier work.
The test system of a further test is iC9.CAR.CD19 DAUDI cells. Description: In vitro activation of iC9 by AP1903, DAUDI (FACS, qPCR). The test is classed as cell-based, human. As to conditions: 20 nM AP1903. As for the experimental part: as §1
(§2) Flow cytometry analysis was performed to determine cell surface antigens expression; monoclonal antibodies for CD45, CD3, CD19, CD22, CD10, CD34 (all from Becton Dickinson, USA) were combined with different fluorescence according to needs. iC9.CAR.CD19 expression was detected using a mAb directed to hCD34 epitope (anti-CD34 QBend-10 PE from R&D System, USA), or CD19 CAR Detection Reagent (Biotin; Miltenyi, Germany). Flow-cytometry analysis was performed using a BD LSRFortessa X-20 cytometer (BD Biosciences, USA) and analyzed by FACSDiva software (BD Biosciences, USA). FACS-sorting on CAR-transduced tumor cell lines was performed on a FACSAria (BD Biosciences, USA).
(§3) The average of vector copy number (VCN) per cell was determined by real-time PCR, using a TaqMan probe designed on the retroviral construct using the Primer Express® software (Applied Biosystems) and reported in Table 2 (iC9 Probe and primers iC9).
(§4) For VCN, each sample was analyzed in triplicate and the average of threshold cycles was used to quantify DNA copies in relation to the mean values of negative control samples. Relative gene expression was calculated using the house-keeping gene ACT1N1 (Hs_02249516 ACT1N1, ThermoFisher Scientific) qPCR was performed employing QuantStudio 12K Flex Real-Time PCR System (ThermoFisher Scientific). For IG/TR PCR-MRD of the DPs, each MRD value was calculated from the corresponding standard curve, and the results were normalized for values of the housekeeping Albumin gene. […]
On the technique in general: Quantitative PCR measures a nucleic acid by following its amplification.

In test [2] the test system is DAUDI, RAJI and NALM-6 iC9.CAR+ cells. The test is described as follows: In vitro activation of iC9 by AP1903, all cellular models (FACS, VCN). The test is classed as cell-based, human. How it is done: as §1, §2, §3, §4
The test system of test [3] is iC9.CAR.CD19 NALM-6 cells. The test is described as follows: In vitro activation of iC9 by AP1903, NALM-6 (qPCR). The test is classed as cell-based, human. As to conditions: 20 nM AP1903. As for the experimental part:
as §1, §3, §4

Another test relates to iC9.CAR.CD19 RAJI cells. Description: In vitro activation of iC9 by AP1903, RAJI (qPCR). The test is classed as cell-based, human. To be noted: 20 nM AP1903. As for the experimental part:
as §1, §3, §4

As to `CC[C@H](C(=O)N1CCCC[C@H]1C(=O)O[C@H](CCc1ccc(OC)c(OC)c1)c1cccc(OCC(=O)NCCNC(=O)COc2cccc([C@@H](CCc3ccc(OC)c(OC)c3)OC(=O)[C@@H]3CCCCN3C(=O)[C@@H](CC)c3cc(OC)c(OC)c(OC)c3)c2)c1)c1cc(OC)c(OC)c(OC)c1` [AP1903], the “complete CAR+ leukemia eradication, number of mice” value in test [1] (AP1903 100 μg/mouse i.p. day 1 to day 28) is listed as 9 out of 10. Moreover, the “survival of treated mice” value in test [1] (AP1903 100 μg/mouse i.p., even after drug suspension, to day 63) turned out to be 100%. The leukemia recurrence entry in test [1] (until day 63 (endpoint of the experiment)) is listed as “no mice showing leukemia recurrence”. In addition, the “residual iC9-T cells after AP1903 administration” value in the test on iC9-T cells is given as 1%. In the test on iC9.CAR.CD19 DAUDI cells (FIG. 8E), the “re-expansion of iC9.CAR+ leukemic cells on prolonged culture” value is reported as “not associated to re-expansion”. The “MFI of CAR expression in AP1903 treated cells” value with iC9.CAR.CD19 DAUDI cells (threshold value, FIG. 10E) is recorded as 142±22. Besides, the figures for the “transgene (TG) positivity in remaining cells after AP1903 exposure (qPCR)” value (in the test on iC9.CAR.CD19 DAUDI cells (DAUDI cells); in test [3]; with iC9.CAR.CD19 RAJI cells) were 22.8%, 0.6% and 18.6%, respectively. Moreover, in test [2] (20 nM AP1903, 6 hours), the “percentage of CAR+ leukemic cells” value was “significant reduction in the percentage of CAR+ leukemic cells”. Further, in test [2] (20 nM AP1903, FIG. 8E, 10B, 10D), the “CD19 antigen detection on cells remaining after AP1903” value is “completed re-established detection of CD19 antigen”. Besides, the “average of VCN threshold in AP1903 treated B cells” value in test [2] (across all the considered cellular models, 20 nM, FIG. 10F) is 0.1±0.1.
